One data set has as its target T1, albumin (Homo sapiens, UniProt P02768).
T1 construct: tissue Zen-Bio; host or cells: pooled human whole blood (K2EDTA, 36 donors) and plasma prepared from it
Nature of the data set: in vitro. Conditions: 37° C., 12.0 μM, read-out: % bound (converted). The format is in vitro ADME. On the procedure: To study the binding kinetics of the albumin-binding maytansinoids in pooled human plasma and pooled human whole blood, the compounds were incubated together with pooled human plasma at 37° C. and samples were taken at specified time points. Remaining albumin-binding maytansinoids were quantitated by HPLC.
To study the binding kinetics in human whole blood, the blood (K2EDTA, 36 donors, Zen-Bio; 900 μL) was preincubated at 37° C. for 30 min in a heating block. To study the binding kinetics in pooled human plasma, the pooled whole blood was centrifuged (10 min, 1811 g), the supernatant plasma was collected and then preincubated at 37° C. for 30 min.
The albumin-binding maytansinoid was added to the preincubated whole blood/plasma sample as a 10-fold dilution in PBS of a 1.2 mM stock solution in 2.5% propylene glycol in 10 mM sodium phosphate buffer and 1.48 mM citrate (100 μL) to produce a 12.0 μM solution of the respective albumin-binding maytansinoid. Samples (190 μL) were taken after 15 s, 2 min, 4 min, 8 min and 15 min. The samples were directly added to 760 μL MeCN containing maytansine (5 μg/mL) as an internal standard and vortexed for 1 min. After centrifugation (1 min at 12,044 g) the supernatant (850 μL) was concentrated under high vacuum. The residue was taken up in DMSO/water (1:1 v/v; 95 μL) and then analyzed by RP-HPLC. Percentage of binding was determined by comparison of the area under the curve (AUC) at 220 nm of the albumin-binding maytansinoid relative to a control sample (100% value) in PBS buffer. All experiments were performed in triplicates.
HPLC method: Phenomenex Kinetex Polar C18, 2.6 μm, 100 Å, 150×4.6 mm; eluent A (95:5 5 mM ammonium acetate: MeCN) and eluent B (5:95 5 mM ammonium acetate: MeCN) eluting with a gradient of eluent B (30% 0-0.5 min, 30-95% 0.5-9.0 min, 95% 11.0 min, 95-30% 11.0-14.5 min, 30% 15.0 min, flow rate=1.0 mL/min). Column oven temperature ambient temperature; autosampler temperature 4° C.; 50 μL of injection volume.

Data set [1] has as its system human tumor xenograft models. Nature of the data set: Antitumor activity in human tumor xenograft mice models. To be noted: five human tumor xenograft models in nude mice, i.v. on day 1, 8, 15, and 22. The format is in vivo. An excerpt: This included starting tumor volumes in the range of approximately 80-110 mm^3 but also initial starting tumor volumes of up to approximately 400 mm^3. Furthermore, in most cases therapy with albumin-binding maytansinoids 30 and 31 induced long-term remissions and a decrease in Relative Tumor Volume (RTV). […] Experimental procedure and the results in the tumor-bearing mice models are described in detail in Examples 11-19 and FIGS. 3-16.
Female immunodeficient NMRI nude mice, from Charles River, received unilateral tumor implants subcutaneously in the left flank while under isoflurane anesthesia with human cancer tumors until tumors were palpable and had reached a volume of 80-200 mm^3 (unless otherwise stated).
Animals were kept in cages, the temperature inside the cages maintained at 25±1° C. with a relative humidity of 45-65% and an air change rate in the cage of 60-fold per hour. They were kept under a 14 h light: 10 h dark, artificial light cycle. The animals were fed with autoclaved Teklad Global 19% Protein Extruded Diet (T.2019S.12) from Envigo RMS SARL and had access to sterile filtered and acidified (pH 2.5) tap water, which was changed twice weekly. Feed and water were provided ad libitum. […] Animals were routinely monitored twice daily on working days and daily on Saturdays and Sundays. […] Relative body weights (RBW) of individual animals were calculated by dividing the individual absolute body weight on day X (BWx) by the individual body weight on the day of randomization multiplied by 100%. The tumor volume was determined by a two-dimensional measurement with calipers on the day of randomization (day 0) and then twice weekly. Tumor volumes were calculated according to the following equation: Tumor Vol [mm^3]=1 [mm]×w^2 [mm^2]×0.5, where “1” is the length and “w” is width of the tumor. The relative volume of an individual tumor on day X (RTVx) was calculated by dividing the absolute individual tumor volume [mm^3] of the respective tumor on day X (Tx) by the absolute individual tumor volume of the same tumor on the day of randomization multiplied by 100%. […]

Like-named read-outs stand apart in the source and are kept apart here.

T1 sequence (P02768 25-609): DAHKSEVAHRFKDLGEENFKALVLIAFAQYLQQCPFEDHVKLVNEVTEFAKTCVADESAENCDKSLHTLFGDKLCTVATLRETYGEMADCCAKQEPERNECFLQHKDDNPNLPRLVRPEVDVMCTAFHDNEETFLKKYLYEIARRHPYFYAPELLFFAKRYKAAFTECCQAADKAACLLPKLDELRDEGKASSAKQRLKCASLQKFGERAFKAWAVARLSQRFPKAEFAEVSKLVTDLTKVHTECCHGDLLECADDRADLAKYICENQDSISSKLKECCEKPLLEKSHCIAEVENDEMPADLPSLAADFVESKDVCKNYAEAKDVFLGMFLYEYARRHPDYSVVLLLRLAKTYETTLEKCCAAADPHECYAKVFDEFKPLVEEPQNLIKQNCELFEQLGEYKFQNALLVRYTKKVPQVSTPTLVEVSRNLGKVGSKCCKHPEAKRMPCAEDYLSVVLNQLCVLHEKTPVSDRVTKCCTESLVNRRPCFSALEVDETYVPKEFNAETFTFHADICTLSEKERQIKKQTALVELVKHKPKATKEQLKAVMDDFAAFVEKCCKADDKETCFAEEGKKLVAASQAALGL

Regarding `COc1cc2cc(c1Cl)N(C)C(=O)C[C@H](OC(=O)COc1cccc(/C(C)=N/NC(=O)c3ccc(NC(=O)CCCCCN4C(=O)C=CC4=O)cc3S(=O)(=O)O)c1)[C@]1(C)O[C@H]1[C@H](C)[C@@H]1C[C@@](O)(NC(=O)O1)[C@H](OC)/C=C/C=C(\C)C2` [Compound 31], the fraction unbound on albumin (blood, pooled human whole blood, 15 s) was 0.008; at albumin (blood, pooled human whole blood, 8 min), 0.007; at albumin (plasma, pooled human plasma, 15 s), 0.08; on albumin (plasma, pooled human plasma, 8 min) it was 0.014. The antitumor activity entry in data set [1] was “partial and complete tumor regressions”.

Values taken from patent US11572373B2, “Maytansinoid-based drug delivery systems” (LADRX CORPORATION, priority 2017, dated 2023).
